One data set relates to BMDCs. In words: Activation of BMDCs using gemcitabine-treated 4T1 breast cancer cell line. The conditions noted are these: gemcitabine-treated breast cancer cell line versus control, FIG. 31D. The format is cell-based, mouse. Here is the method:
In addition, the activation of BMDCs using a gemcitabine-treated 4T1 breast cancer cell line was confirmed. The 4T1 cells were cultured with 1 μg/mL gemcitabine in a 6-well plate at a density of 2×10^6 cells/well. The gemcitabine-induced apoptosis of the 4T1 breast cancer cells was assessed according to the protocol of the FITC Annexin V Apoptosis kit (BD Biosciences). After 24 hours, a supernatant was collected, and then incubated with BMDCs. A BMDC activation marker was analyzed using an Accuri™ flow cytometer. Antibodies used herein were FITC-anti-CD11c and APC-anti-CD80 (BD Pharmingen).

The subject of data set [1] is myeloid-derived-suppressor cells (MDSCs). In words: Gemcitabine-induced apoptosis of MDSCs (FITC Annexin V). The format is cell-based, mouse. The conditions noted are these: various gemcitabine concentrations, FIG. 31B. As for the experimental part: Gemcitabine induces apoptosis of myeloid-derived-suppressor cells (MDSCs) in vitro. The spleen was extracted from a mouse harboring 4T1 tumors for 28 days, the extracted spleen was ground, and RBCs were removed therefrom using an RBC lysis buffer. The RBC-removed spleen cells were re-dispersed in a MACS buffer (PBS, 0.5% BSA, […]), MDSCs were isolated using an MDSC isolation kit (Miltenyi Biotec). The isolated myeloid-derived-suppressor cells were seeded in a 6-well plate at a density of 2×10^6 cells/well, and incubated with various concentrations of gemcitabine. The gemcitabine-induced apoptosis of the MDSCs was assessed according to the protocol of an FITC Annexin V Apoptosis kit (BD Biosciences).

Data set [2] concerns 4T1 breast cancer cell line. Put plainly: Gemcitabine-induced apoptosis of 4T1 breast cancer cells (FITC Annexin V). Type of data set: cell-based. The settings on record: change in gemcitabine concentration, FIG. 31C. As for the experimental part: In addition, the activation of BMDCs using a gemcitabine-treated 4T1 breast cancer cell line was confirmed. […] The gemcitabine-induced apoptosis of the 4T1 breast cancer cells was assessed according to the protocol of the FITC Annexin V Apoptosis kit (BD Biosciences). After 24 hours, a supernatant was collected, and then incubated with BMDCs. A BMDC activation marker was analyzed using an Accuri™ flow cytometer. Antibodies used herein were FITC-anti-CD11c and APC-anti-CD80 (BD Pharmingen).

A short description of data set [3]: In vitro drug release behavior of soft bio-integrated device. Type of data set: physicochemical. The conditions noted are these: within one week, PBS (pH 7.4), 37° C., FIG. 31A. Here is the method: A scaffold in which gemcitabine, rhodamine-attached poly(I:C)/nanogel, and a 4T1 cell lysate were loaded was added to 1 mL of PBS (pH 7.4), and stored at 37° C. and 90 rpm. Every selected time interval, the original culture medium was obtained and exchanged with a fresh medium. An amount of gemcitabine released from the scaffold was measured using absorbance (275 nm, UV-1800; Shimadzu, Kyoto, Japan), the rhodamine-attached poly(I:C) was measured according to the protocol of the 5'[…] Nucleic Acid Labeling System (Vector Laboratories), and the 4T1 cell lysate was measured using the BCA assay method (Pierce Biotechnology). Specifically, a fluorescence spectrometer (PerkinElmer) was used to detect and analyze fluorescence at 552 nm (excitation) and 575 nm (emission) from the poly(I:C)/nanogel attached to rhodamine released from the scaffold.

Another data set has as its system 4T1 tumor. Put plainly: In vivo anticancer effect after tumor resection and implantation of soft bio-integrated device. Details: species or system BALB/c mice. The conditions noted are these: day 7 and day 14, FIG. 38A. Here is the method:
When 1×10^6 4T1 cells were injected and the size of a growing tumor became 300 mm^3 on day 14 after injection, the tumor was partially resected. A mouse was anesthetized using 2,2,2-tribromoethanol. The surgical site was sterilized with 70% ethanol, and 90% of the tumor was resected so that 10% of the tumor remained. A scaffold was implanted near the remaining part of the tumor.
On day 7 and day 14 after tumor removal and implantation of a soft bio-integrated device, a mouse was sacrificed, and a tumor, the spleen and a lymph node of the sacrificed mouse were isolated to measure weights thereof.
The tumor and lymph node were cut into small pieces, dispersed in DMEM containing collagenase D, stored for 1 hour at 37° C. and 90 rpm, and then filtered through a 70-μm strainer. The spleen was physically disrupted, and then RBCs were removed using an RBC lysis buffer. The tumor and spleen dispersed as single cells by the above-described method were analyzed using APC-anti-CD11b and PE-anti-Gr1 antibodies to confirm myeloid-derived-suppressor cells and using APC-anti-CD3, PE-anti-CD4 and FITC-CD8 antibodies to confirm T cells. All antibodies were purchased from BD Pharmingen.
Moreover, to confirm tumor metastasis, on day 14 after the tumor removal, the mouse was sacrificed to confirm metastasis. […]

Take `Nc1ccn([C@@H]2O[C@H](CO)[C@@H](O)C2(F)F)c(=O)n1` [gemcitabine]: the “cell maturity of dendritic cells” value in the data set with BMDCs is on record as “increased”. Besides, the “dead cell percentage of MDSCs” value in data set [1] was “increased as the gemcitabine concentration increased”. The “dead cell percentage in breast cancer cell line (4T1)” value in data set [2] is on record as “increased as the gemcitabine concentration increased”. Also, the “accumulation amount of gemcitabine released from the scaffold” value in data set [3] is given as “approximately 90%”. Besides, in the data set with 4T1 tumor, the “MDSC proportion in the tumor and the spleen” value is on record as “reduced”.

The values above are taken from patent US11590076B2, “Cryogel scaffold capable of controlling degree of degradation and soft bio-integrated device in which drug modulating immunosuppressive action in solid microenvironment is loaded in same scaffold” (Research & Business Foundation Sungkyunkwan University, priority 2017, dated 2023).
